Values quoted from earlier work in patent EP0959130A1, “Cloning and expression of a new glucoamylase gene from endomyces fibuliger” (SOCIETE DES PRODUITS NESTLE S.A., priority 1998, dated 1999).

Legend:
[1] = tested on: Glucoamylase II from E.fibuliger IFO 0111; conditions: purified Glucoamylase II; from Futatsugi et al., 1993; read-out: Km for maltose
[2] = tested on: Glucoamylase I from E.fibuliger IFO 0111; conditions: purified Glucoamylase I; from Futatsugi et al., 1993; read-out: Km for maltose

## OC[C@H]1O[C@H](O[C@H]2[C@H](O)[C@@H](O)C(O)O[C@@H]2CO)[C@H](O)[C@@H](O)[C@@H]1O (mixture of isomers) [maltose]
[1]
  Km: 2.6 mM
[2]
  Km: 8.3 mM
